The text below walks through data of BindingDB's records for doi:10.1038/sj.npp.1300819 (Case Western Reserve University, 2006).

One may read the Ki as the equilibrium dissociation constant of an inhibitor or competing ligand from its target. Higher therefore signals a looser hold on the target.

Some targets named below: Histamine H1 receptor (Homo sapiens, UniProt P35367); D(4) dopamine receptor (Homo sapiens, UniProt P21917); D(1A) dopamine receptor (Homo sapiens, UniProt P21728); D(1B) dopamine receptor (Homo sapiens, UniProt P21918); D(3) dopamine receptor (Rattus norvegicus, UniProt P19020).
Experiment [1] deals with 5-hydroxytryptamine receptor 1A (Homo sapiens, UniProt P08908).
5-hydroxytryptamine receptor 1A, sequence (P08908 whole entry): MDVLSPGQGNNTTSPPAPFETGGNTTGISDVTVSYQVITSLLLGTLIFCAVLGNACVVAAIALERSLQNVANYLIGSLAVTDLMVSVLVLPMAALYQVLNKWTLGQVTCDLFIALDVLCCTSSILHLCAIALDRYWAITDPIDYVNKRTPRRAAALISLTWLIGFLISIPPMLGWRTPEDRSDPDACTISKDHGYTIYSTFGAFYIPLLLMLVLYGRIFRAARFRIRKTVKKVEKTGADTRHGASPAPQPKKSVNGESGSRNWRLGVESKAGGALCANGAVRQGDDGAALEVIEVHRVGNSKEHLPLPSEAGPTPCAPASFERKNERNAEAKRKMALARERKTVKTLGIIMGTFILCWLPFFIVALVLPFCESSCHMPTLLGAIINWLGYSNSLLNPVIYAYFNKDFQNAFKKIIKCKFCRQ
The target in experiment [2] is 5-hydroxytryptamine receptor 6 (Homo sapiens, UniProt P50406).
5-hydroxytryptamine receptor 6, sequence (P50406 whole entry): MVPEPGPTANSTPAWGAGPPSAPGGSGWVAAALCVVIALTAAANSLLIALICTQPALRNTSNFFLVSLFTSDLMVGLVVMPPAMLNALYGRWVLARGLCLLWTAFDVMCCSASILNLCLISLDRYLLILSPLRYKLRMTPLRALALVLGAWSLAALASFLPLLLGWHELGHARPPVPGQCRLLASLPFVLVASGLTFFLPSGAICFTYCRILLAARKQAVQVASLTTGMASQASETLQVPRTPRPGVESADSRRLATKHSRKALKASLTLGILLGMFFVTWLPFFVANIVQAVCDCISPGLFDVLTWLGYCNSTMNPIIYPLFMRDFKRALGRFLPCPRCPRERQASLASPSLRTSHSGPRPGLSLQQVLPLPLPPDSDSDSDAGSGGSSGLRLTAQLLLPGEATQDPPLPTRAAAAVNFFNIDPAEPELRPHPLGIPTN
Experiment [3] deals with 5-hydroxytryptamine receptor 2A (Rattus norvegicus, UniProt P14842).
5-hydroxytryptamine receptor 2A, sequence (P14842 whole entry): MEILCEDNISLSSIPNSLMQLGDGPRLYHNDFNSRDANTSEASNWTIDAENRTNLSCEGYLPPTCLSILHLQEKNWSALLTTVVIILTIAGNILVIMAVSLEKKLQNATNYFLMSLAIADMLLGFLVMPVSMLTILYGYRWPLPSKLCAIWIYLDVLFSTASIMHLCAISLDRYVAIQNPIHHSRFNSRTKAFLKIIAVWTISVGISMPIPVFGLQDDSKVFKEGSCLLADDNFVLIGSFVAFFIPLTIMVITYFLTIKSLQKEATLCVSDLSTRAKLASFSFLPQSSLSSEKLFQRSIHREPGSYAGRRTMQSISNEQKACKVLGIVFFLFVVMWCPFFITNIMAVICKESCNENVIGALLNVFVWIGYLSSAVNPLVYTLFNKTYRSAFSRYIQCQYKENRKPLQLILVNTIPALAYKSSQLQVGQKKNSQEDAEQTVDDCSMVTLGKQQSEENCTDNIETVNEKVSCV
Experiment [4] has as its target Sodium-dependent dopamine transporter (Homo sapiens, UniProt Q01959).
Experiment [5] has as its target Sodium-dependent serotonin transporter (Homo sapiens, UniProt P31645).
In experiment [6] the target is Sodium-dependent noradrenaline transporter (Homo sapiens, UniProt P23975).
Sodium-dependent noradrenaline transporter, sequence (P23975 whole entry): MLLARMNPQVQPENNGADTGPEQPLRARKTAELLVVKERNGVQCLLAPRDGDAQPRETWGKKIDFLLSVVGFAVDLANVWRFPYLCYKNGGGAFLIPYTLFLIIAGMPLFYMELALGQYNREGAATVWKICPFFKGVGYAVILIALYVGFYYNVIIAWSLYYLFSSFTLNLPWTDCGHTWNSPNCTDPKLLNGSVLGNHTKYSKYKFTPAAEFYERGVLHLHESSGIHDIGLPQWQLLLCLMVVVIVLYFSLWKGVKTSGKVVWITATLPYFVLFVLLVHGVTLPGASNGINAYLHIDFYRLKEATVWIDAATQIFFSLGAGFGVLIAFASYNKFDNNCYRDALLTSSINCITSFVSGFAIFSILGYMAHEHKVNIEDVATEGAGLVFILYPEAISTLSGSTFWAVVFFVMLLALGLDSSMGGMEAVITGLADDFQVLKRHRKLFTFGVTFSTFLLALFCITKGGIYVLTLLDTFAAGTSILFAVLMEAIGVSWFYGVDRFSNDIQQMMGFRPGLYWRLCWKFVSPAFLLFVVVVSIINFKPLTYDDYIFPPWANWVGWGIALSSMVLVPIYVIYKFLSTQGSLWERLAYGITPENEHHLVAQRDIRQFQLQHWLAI
The target of experiment [7] is 5-hydroxytryptamine receptor 2B (Homo sapiens, UniProt P41595).
Experiment [8] deals with 5-hydroxytryptamine receptor 1B (Rattus norvegicus, UniProt P28564).
5-hydroxytryptamine receptor 1B, sequence (P28564 whole entry): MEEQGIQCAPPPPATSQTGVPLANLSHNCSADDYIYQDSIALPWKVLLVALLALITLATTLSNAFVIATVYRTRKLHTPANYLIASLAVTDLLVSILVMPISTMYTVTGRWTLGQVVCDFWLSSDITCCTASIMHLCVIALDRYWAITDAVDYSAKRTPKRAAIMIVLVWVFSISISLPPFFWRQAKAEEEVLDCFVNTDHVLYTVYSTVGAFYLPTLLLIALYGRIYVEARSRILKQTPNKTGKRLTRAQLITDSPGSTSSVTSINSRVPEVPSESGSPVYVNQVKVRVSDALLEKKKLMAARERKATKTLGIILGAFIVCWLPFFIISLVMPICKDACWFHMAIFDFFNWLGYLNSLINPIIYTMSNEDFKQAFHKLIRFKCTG
In experiment [9] the target is Alpha-1A adrenergic receptor (Homo sapiens, UniProt P35348).
Experiment [10] has as its target 5-hydroxytryptamine receptor 2C (Rattus norvegicus, UniProt P08909).
Experiment [11] has as its target Alpha-2C adrenergic receptor (Homo sapiens, UniProt P18825).
Experiment [12] has as its target Alpha-1B adrenergic receptor (Homo sapiens, UniProt P35368).
In experiment [13] the target is Alpha-2A adrenergic receptor (Homo sapiens, UniProt P08913).
Alpha-2A adrenergic receptor, sequence (P08913 whole entry): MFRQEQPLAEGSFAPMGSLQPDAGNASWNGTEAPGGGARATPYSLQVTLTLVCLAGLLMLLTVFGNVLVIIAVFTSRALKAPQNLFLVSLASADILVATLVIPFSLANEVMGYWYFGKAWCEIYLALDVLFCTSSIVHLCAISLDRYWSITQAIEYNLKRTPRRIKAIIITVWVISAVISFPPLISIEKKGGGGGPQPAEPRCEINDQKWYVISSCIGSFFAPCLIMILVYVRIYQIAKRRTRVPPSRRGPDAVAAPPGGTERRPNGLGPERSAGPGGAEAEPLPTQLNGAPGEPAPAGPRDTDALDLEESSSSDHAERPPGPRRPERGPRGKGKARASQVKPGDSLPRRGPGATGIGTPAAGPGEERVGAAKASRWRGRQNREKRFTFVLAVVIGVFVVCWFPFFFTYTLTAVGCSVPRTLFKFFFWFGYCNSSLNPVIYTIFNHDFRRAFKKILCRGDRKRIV
For experiment [14], the target named is Muscarinic acetylcholine receptor M3 (Homo sapiens, UniProt P20309).
Experiment [15] has as its target 5-hydroxytryptamine receptor 5A (Homo sapiens, UniProt P47898).
The target in experiment [16] is Muscarinic acetylcholine receptor M2 (Homo sapiens, UniProt P08172).
The target in experiment [17] is Muscarinic acetylcholine receptor M1 (Homo sapiens, UniProt P11229).
Experiment [18] addresses Muscarinic acetylcholine receptor M4 (Homo sapiens, UniProt P08173).
Experiment [19] has as its target Muscarinic acetylcholine receptor M5 (Homo sapiens, UniProt P08912).

D(1A) dopamine receptor, sequence (P21728 whole entry): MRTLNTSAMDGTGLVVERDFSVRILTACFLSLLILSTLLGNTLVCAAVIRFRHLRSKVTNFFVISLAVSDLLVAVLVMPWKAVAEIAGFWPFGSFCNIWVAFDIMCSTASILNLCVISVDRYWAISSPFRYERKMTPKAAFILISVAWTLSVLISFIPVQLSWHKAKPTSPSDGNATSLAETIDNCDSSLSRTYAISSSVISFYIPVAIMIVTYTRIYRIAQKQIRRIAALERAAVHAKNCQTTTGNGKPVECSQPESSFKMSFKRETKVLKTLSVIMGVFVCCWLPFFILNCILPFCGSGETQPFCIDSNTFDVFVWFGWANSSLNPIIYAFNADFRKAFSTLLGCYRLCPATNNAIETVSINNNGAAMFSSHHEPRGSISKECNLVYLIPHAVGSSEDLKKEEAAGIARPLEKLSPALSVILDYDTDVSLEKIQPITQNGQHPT
Sodium-dependent dopamine transporter, sequence (Q01959 whole entry): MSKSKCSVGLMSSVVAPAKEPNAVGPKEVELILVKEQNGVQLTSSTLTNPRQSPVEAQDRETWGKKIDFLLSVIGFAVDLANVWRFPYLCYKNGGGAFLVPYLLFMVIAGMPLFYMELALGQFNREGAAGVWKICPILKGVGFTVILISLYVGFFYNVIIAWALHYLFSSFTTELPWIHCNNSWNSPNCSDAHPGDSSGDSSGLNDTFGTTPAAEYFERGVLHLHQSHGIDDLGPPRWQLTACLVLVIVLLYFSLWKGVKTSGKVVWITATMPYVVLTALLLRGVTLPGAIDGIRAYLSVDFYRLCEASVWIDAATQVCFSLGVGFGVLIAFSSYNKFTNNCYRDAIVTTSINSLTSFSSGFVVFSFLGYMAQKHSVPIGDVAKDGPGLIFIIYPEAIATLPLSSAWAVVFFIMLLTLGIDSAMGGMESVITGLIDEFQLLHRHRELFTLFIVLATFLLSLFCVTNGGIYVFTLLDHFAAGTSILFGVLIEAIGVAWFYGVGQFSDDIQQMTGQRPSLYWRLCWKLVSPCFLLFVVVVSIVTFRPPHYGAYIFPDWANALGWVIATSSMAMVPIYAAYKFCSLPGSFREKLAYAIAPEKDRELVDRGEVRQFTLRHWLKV
5-hydroxytryptamine receptor 2C, sequence (P08909 whole entry): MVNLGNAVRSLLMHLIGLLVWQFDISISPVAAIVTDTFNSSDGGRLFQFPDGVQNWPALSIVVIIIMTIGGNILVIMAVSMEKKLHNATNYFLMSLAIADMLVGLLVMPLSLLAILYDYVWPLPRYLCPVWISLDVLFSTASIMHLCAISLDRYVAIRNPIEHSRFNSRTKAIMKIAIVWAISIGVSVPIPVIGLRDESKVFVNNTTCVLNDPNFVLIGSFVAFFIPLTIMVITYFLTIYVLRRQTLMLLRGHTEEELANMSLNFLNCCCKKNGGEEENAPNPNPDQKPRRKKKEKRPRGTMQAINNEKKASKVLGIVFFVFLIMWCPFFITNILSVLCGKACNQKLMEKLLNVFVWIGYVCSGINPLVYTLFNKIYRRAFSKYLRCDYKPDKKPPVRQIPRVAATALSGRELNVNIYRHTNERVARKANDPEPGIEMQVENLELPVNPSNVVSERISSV
Alpha-2C adrenergic receptor, sequence (P18825 whole entry): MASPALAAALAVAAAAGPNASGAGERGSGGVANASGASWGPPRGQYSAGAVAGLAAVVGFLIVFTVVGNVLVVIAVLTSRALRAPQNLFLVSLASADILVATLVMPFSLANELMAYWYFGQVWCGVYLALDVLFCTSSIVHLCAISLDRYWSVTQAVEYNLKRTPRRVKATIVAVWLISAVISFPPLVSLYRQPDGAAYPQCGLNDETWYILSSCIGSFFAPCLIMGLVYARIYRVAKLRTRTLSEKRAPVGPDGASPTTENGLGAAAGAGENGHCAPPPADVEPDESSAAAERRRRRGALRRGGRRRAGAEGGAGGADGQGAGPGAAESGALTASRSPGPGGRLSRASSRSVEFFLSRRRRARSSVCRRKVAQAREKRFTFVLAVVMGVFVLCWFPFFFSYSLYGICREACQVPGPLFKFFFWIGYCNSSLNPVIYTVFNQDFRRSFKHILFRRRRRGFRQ

Regarding `OC(c1ccccc1)C1CCN(CCc2ccccc2)CC1` (centres undefined) [MDL-11939], the Ki in experiment [1] was 3420 nM; in experiment [2], 2750 nM; in experiment [3], 2.89 nM; in [4], above 10000 nM; in [5] it was 2600 nM; in experiment [6] it was above 10000 nM. Also, the Ki on Histamine H1 receptor worked out at 1600 nM; in experiment [7], 1420 nM; on D(4) dopamine receptor, 3930 nM; in experiment [8], 70.5 nM; in experiment [9], 1880 nM; on D(1A) dopamine receptor, 327 nM. The Ki in experiment [10] stood at 854 nM; on D(1B) dopamine receptor, 2870 nM; in [11] it was 1190 nM; in experiment [12], 1580 nM; in [13], 1590 nM.
As for `CN(C)CCON=C(C=Cc1ccc(O)cc1)c1ccccc1F` [NSC_6438382], the Ki in experiment [1] came out at 2500 nM; in experiment [2], 3870 nM; in [3], 0.951 nM; in [4] it was 5620 nM; in experiment [6], 739 nM; in [14], 2390 nM. Besides, the Ki in [8] was 914 nM; at D(3) dopamine receptor it was above 10000 nM; at D(1A) dopamine receptor it was above 10000 nM; in [15], 1750 nM; in [10], 8.24 nM; in [11], 2120 nM. The Ki is above 10000 nM in experiment [16]; 733 nM in experiment [17]; 3670 nM in experiment [18]; 3010 nM in [19]; 726 nM in experiment [13].
